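Results reflect a 48-hour exposure of cells in 96-well plates to compound at five concentrations. At the GI50, growth is halved. Definition used: TGI = concentration required for complete inhibition of growth.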
What was measured:
Test in all cases: inhibition of tumour cell growth, NCI panel, 48 h
K-562 leukemia = system: K-562 leukemia
HCT-116 colon = system: HCT-116 colon
UACC-257 melanoma = system: UACC-257 melanoma
LOX IMVI melanoma = system: LOX IMVI melanoma
OVCAR-5 ovarian = system: OVCAR-5 ovarian
SF-539 CNS = system: SF-539 CNS
786-0 renal = system: 786-0 renal
SK-MEL-2 melanoma = system: SK-MEL-2 melanoma
MCF7 breast = system: MCF7 breast
SF-268 CNS = system: SF-268 CNS

| SMILES | TGI (K-562 leukemia) | TGI (HCT-116 colon) | TGI (UACC-257 melanoma) | TGI (LOX IMVI melanoma) | TGI (OVCAR-5 ovarian) | TGI (SF-539 CNS) | TGI (786-0 renal) | TGI (SK-MEL-2 melanoma) | TGI (MCF7 breast) | TGI (SF-268 CNS) | GI50 (K-562 leukemia) | GI50 (HCT-116 colon) | GI50 (UACC-257 melanoma) | GI50 (LOX IMVI melanoma) | GI50 (SF-539 CNS) | GI50 (SK-MEL-2 melanoma) | GI50 (MCF7 breast) | GI50 (SF-268 CNS) | GI50 (OVCAR-5 ovarian) |
| --- | --- | --- | --- | --- | --- | --- | --- | --- | --- | --- | --- | --- | --- | --- | --- | --- | --- | --- | --- |
| N=C(N)SC(c1ccccc1)c1ccccc1 | 85.3 µM | 24.6 µM | 28.4 µM | 30.7 µM | 32.2 µM | 37.7 µM | 25.2 µM | 32 µM | 30 µM | 78.5 µM | – | – | – | – | – | – | – | – | – |
| Cc1cc(N2CCCCC2)nc(NCc2cc(Nc3ccnc4cc(Cl)ccc34)ccc2F)n1 | 5.17 µM | 3.5 µM | 2.85 µM | 3.29 µM | – | 3.04 µM | – | 3.59 µM | 1.46 µM | 3.11 µM | 2.07 µM | 1.64 µM | 1.32 µM | 1.73 µM | 1.58 µM | 1.89 µM | 0.298 µM | 1.35 µM | – |
| NS(=O)(=O)c1ccc(C(=O)O)cc1 | > 100 µM | > 100 µM | – | > 100 µM | > 100 µM | – | > 100 µM | > 100 µM | > 100 µM | > 100 µM | – | – | – | – | – | – | – | – | – |
| Cc1nc2ccccc2c(=O)n1Nc1ccc(C(=O)O)cc1 | > 100 µM | > 100 µM | > 100 µM | > 100 µM | > 100 µM | > 100 µM | – | > 100 µM | > 100 µM | > 100 µM | – | – | – | – | – | – | – | – | – |
| O=C1CC(c2ccccc2)NCCCCN2CC(CN1)C(C(O)c1ccccc1)C2=O (stereo unspecified) | – | > 100 µM | > 100 µM | > 100 µM | > 100 µM | > 100 µM | > 100 µM | > 100 µM | > 100 µM | > 100 µM | – | – | – | – | – | – | – | – | – |
| CC(C)(c1ccccc1)c1ccc(Oc2ccc3c(c2)-c2nc-3nc3[nH]c(nc4nc(nc5[nH]c(n2)c2ccc(Oc6ccc(C(C)(C)c7ccccc7)cc6)cc52)-c2cc(Oc5ccc(C(C)(C)c6ccccc6)cc5)ccc2-4)c2ccc(Oc4ccc(C(C)(C)c5ccccc5)cc4)cc32)cc1 | > 100 µM | > 100 µM | > 100 µM | > 100 µM | > 100 µM | > 100 µM | > 100 µM | > 100 µM | – | – | – | – | – | – | – | – | – | – | – |
| COc1ccc(C(=O)NNC(=O)c2nsc3ccccc23)cc1 | > 100 µM | > 100 µM | > 100 µM | > 100 µM | > 100 µM | > 100 µM | – | > 100 µM | – | > 100 µM | – | – | – | – | – | – | – | – | – |
| Nc1ccc([As](=O)(O)O)cc1 | > 100 µM | > 100 µM | > 100 µM | > 100 µM | > 100 µM | > 100 µM | > 100 µM | > 100 µM | > 100 µM | > 100 µM | – | – | – | – | – | – | – | – | – |
| Cc1cccc(NC(N)=S)c1 | > 100 µM | > 100 µM | > 100 µM | > 100 µM | > 100 µM | > 100 µM | – | > 100 µM | – | > 100 µM | – | – | – | – | – | – | – | – | – |
| COc1ccc2c(c1)C(=O)c1c-2n(CCCCl)c(=O)c2cc([N+](=O)[O-])ccc12 | > 100 µM | 0.737 µM | 98.5 µM | 0.111 µM | > 26.4 µM | 0.456 µM | 0.159 µM | > 95.6 µM | – | – | – | – | 1.59 µM | < 0.01 µM | 0.11 µM | 3.56 µM | < 0.01 µM | < 0.0262 µM | 1.26 µM |

— PubChem BioAssay (NCI)
